Data from US20040232089A1, “Biocidal compounds for treating water” (VANETTA S.p.A., priority 2003, published 2004).

Experiments:
[1] = tested on: Pseudomonas aeruginosa ATCC 10145; test: Disk diffusion test (Kirby-Bauer); type: cell-based; conditions: 100 μg MNB disk, 24 hours in the dark
Procedure: (§1) a) Kirby-Bauer assay was carried out after 24 hours in the dark.
(§2) In the disk diffusion susceptibility test, paper disks containing known amounts of MNB are placed on the surface of an agar plate that has been inoculated confluently with a standardized suspension of an indicator bacterial strain. The antimicrobial agent diffuses into the medium causing a zone of inhibition of growth of the strain around the disk corresponding to the susceptibility of the strain to that agent. Interpretative zone diameters have been established to permit classifying an isolate as belonging to the susceptible, intermediate resistance, or resistant categories of susceptibilities to an antimicrobial agent.
(§3) The disk diffusion method on agar plates was used to assess the biocide efficacy of a single concentration of MNB ([…]) against four aerobic quality control strains (Pseudomonas aeruginosa ATCC10145, Pseudomonas elongata NCIMB 1141, Bacillus subtilis ATCC 10774 and Staphylococcus aureus ATCC 25923).
(§4) Test results are summarised in Table 5 and represent the size of the inhibition halos in millimetres after contact with 100 μg MNB (Disk diffusion method).

[2] = tested on: Pseudomonas elongata NCIMB 1141; test: Disk diffusion test (Kirby-Bauer); type: cell-based; conditions: 100 μg MNB disk, 24 hours in the dark
Procedure: as §1, §2, §3, §4

[3] = tested on: Staphylococcus aureus ATCC 25923; test: Disk diffusion test (Kirby-Bauer); type: cell-based; conditions: 100 μg MNB disk, 24 hours in the dark
Procedure: as §1, §2, §3, §4

[4] = tested on: Bacillus subtilis ATCC 10774; test: Disk diffusion test (Kirby-Bauer); type: cell-based; conditions: 100 μg MNB disk, 24 hours in the dark
Procedure: as §1, §2, §3, §4

[5] = tested on: Staphylococcu aureus ATCC 25923; test: Microdilution broth MIC/MBC; type: cell-based, Staphylococcus aureus; conditions: 24 h at 25° C., dark
Procedure: b) Serial dilution test: the antibiotic activity is determined quantitatively by using the known sensitivity of a test strain towards an antibiotic which is expressed numerically as the minimal inhibitory concentration (MIC) and the minimal bactericidal concentration (MBC).
Procedure: serial dilutions of the antibiotic to be tested are pipetted into the antibiotic broth, this is then inoculated with a defined quantity of the relevant test strain (FIG. 4).
The Minimum Inhibitory Concentration (MIC) was defined as the lowest concentration of antibiotic which prevented visual turbidity after incubation.
The Minimum Bactericidal Concentration (MBC) is defined as the lowest concentration of an antibiotic killing the majority of a bacterial inoculum (99.9%, equivalent to a thousand-fold reduction of the inoculum). Method: Following a broth dilution MIC test, from each tube in the dilution series a defined volume (20 μL) is spread onto plates without antibiotics. […] The plates were incubate overnight (longer for slow growing bacteria) and then counted the number of colonies growing from each of the test tubes. The number of colonies corresponding to a thousand-fold reduction (MBC) can be calculated if the colony count of the start inoculum is known. […]
Antimicrobial assays were performed in dark, and results were read after 24 h of incubation at 25° C. […]

Question: Which “size of the inhibition halos” value [1] does the source give for CC1(S(=O)(=O)O)CC(=O)c2ccccc2C1=O.NC(=O)c1cccnc1 (stereo not drawn) [MNB, menadione nicotinamide bisulphite] here?
Answer: The value was 0 mm.

Question: What about the “size of the inhibition halos” value [2] of the same compound?
Answer: The value was 20 mm.

Question: What about the “size of the inhibition halos” value [3] of the same compound?
Answer: The value was 20 mm.

Question: And the “size of the inhibition halos” value [4]?
Answer: The value was 0 mm.

Question: What about the MBC [5] of the same compound?
Answer: Its MBC is 16 µg/mL.

Question: And the MIC [5]?
Answer: The MIC was 8 µg/mL.
